Literature values as cited in patent publication US20060069068A1, “Methods and compositions for the treatment of diseases characterized by pathological calcification” (Nanobac Pharmaceuticals, Inc., priority 2004, published 2006).

Tests used:
Nanobacteria = conditions: background statement
[1] = both in vitro and in vivo; comparator etidronate

Compound: Penicillin
- killing of Nanobacteria (Nanobacteria): cannot be killed

Compound: NCCCC(O)(P(=O)(O)O)P(=O)(O)O [alendronate]
- potency relative to etidronate [1]: approximately 700 fold
